We go through one molecule from patent US12582599B2, “Methods for treatment of bladder cancer with gemcitabine” (TARIS Biomedical LLC, priority 2014, dated 2026).

Molecules are shown by their SMILES.

The nature of data set [1]: Gemcitabine release systems vs intravesical instillation in hounds. The format is in vivo, large mixed breed hounds. The settings on record: intravesical instillation mimicking standard clinical doses. The method, then: Two gemcitabine release systems (devices as shown in FIGS. 1A-1B) designed to release therapeutic levels (4 mg/day and 40 mg/day) into the urine were screened. The devices used either laser-drilled orifices or punched orifices for release of the gemcitabine. The systems tested were compared to intravesical instillations which were designed to mimic the standard intravesical doses used clinically. The test animals were large mixed breed hounds, with N=3 for each group.
In vivo, one system yielded very low urine and tissue concentrations but was well tolerated by the test animal. The other system produced target urine concentration levels but was poorly tolerated by the test animal. Urine profiles were also variable and the duration of drug release was unacceptably short.

For data set [2] the following is noted: minipig, in vivo. As for the experimental part:
Varying concentrations of gemcitabine were perfused into pigs for 7 days, N=5 (2 males and 3 females per treatment group). The perfusion animals were dosed at concentrations selected to bracket the target doses for bladder cancer in humans. For comparison, a gemcitabine releasing device (as shown in FIGS. 1A-1B) with large bore end caps (restraining plugs with a large aperture therethrough for drug release) with an intermediate in vitro release rate was deployed in a separate group of animals.

Data set [3] can be described thus: 14C gemcitabine bladder perfusion vs IV bolus, blood/urine/tissue content. The format is in vivo, male Sprague Dawley rats. As for the experimental part:
A study was conducted on male Sprague Dawley rats administering ^14C gemcitabine by intra-urinary bladder cannula, over a 6- or 24-hour continuous perfusion, or by a single IV bolus. The 6- and 24-hour continuous perfusions perfused 6.9 and 26.6 mg, respectively, of gemcitabine into the bladder. The single IV bolus included 5.0 mg of gemcitabine. Blood (FIG. 8), urine, and tissue samples (e.g., bladder, prostate) (FIGS. 7 and 9) were collected and analyzed for gemcitabine content. The results are illustrated in FIGS. 7-9. […] The gemcitabine levels observed for each of the bladder epithelium, lamina propria, muscularis, and adventitia are shown in FIG. 14, which also illustrates a target effective range for the gemcitabine tissue concentration.

On to `Nc1ccn([C@@H]2O[C@H](CO)[C@@H](O)C2(F)F)c(=O)n1` [gemcitabine, 2′,2′-difluorodeoxycytidine], for which the urothelial lesions result in data set [1] is given as “significant urothelial lesions”. Further, in data set [2], the tolerability result is recorded as “tolerated gemcitabine well”. In addition, the “gemcitabine levels in bladder tissue” value in data set [3] (6- or 24-hour continuous bladder perfusion, sustained urine concentrations) is given as “at or exceed therapeutic concentrations”. The “concentration of gemcitabine in the bladder” value in data set [3] (24 hours after a clinically relevant IV dose, compared with perfusion) was “significantly lower concentration”. Besides, in data set [3] (continuous delivery by intravesical administration), the plasma/systemic exposure entry is “without significant plasma/systemic exposure”.
